Values after ≈ are worked out from the molar mass of the structure shown. Non-standard residues stand in square brackets, D forms with d. Residues, ends and D or L forms follow the SMILES beside them. *: point of attachment. 1Naphthoyl = O=C(c1cccc2ccccc12)*
Columns and labels:
A. baumannii AB1901 = test: MIC against clinical strain; type: cell-based; conditions: Acinetobacter baumannii, AB1901, read-out: MIC, A. baumannii AB1901
Protocol: (§1) The MIC values of the nano‐short peptides were determined according to standard protocols.^[ [63] ^] Bacterial strains were revived from cryopreservation and cultured in Mueller–Hinton broth (MHB) to logarithmic growth phase, then diluted to a final density of 0.5–1 × 10⁶ CFU mL^−1. Serial dilutions of the nano‐short peptides were prepared in 0.2% bovine serum albumin (BSA) using a 96‐well plate format. Equal volumes of peptide solutions and bacterial suspensions were combined and incubated at 37 °C for 20–22 h. Bacterial growth was assessed by measuring absorbance at 492 nm, with MHB alone (negative control) and untreated bacterial suspension (positive control) included for reference.

A. baumannii AB1902 = test: MIC against clinical strain; type: cell-based; conditions: Acinetobacter baumannii, AB1902, read-out: MIC, A. baumannii AB1902
Protocol: as §1

P. aeruginosa 25349 = test: MIC against clinical strain; type: cell-based; conditions: Pseudomonas aeruginosa, 25349, read-out: MIC, P. aeruginosa 25349
Protocol: as §1

S. aureus 11011 = test: MIC against clinical strain; type: cell-based; conditions: Staphylococcus aureus, 11011, read-out: MIC, S. aureus 11011
Protocol: as §1

P. aeruginosa PAO1 = type: cell-based, Pseudomonas aeruginosa
Protocol: as §1

P. aeruginosa 27853 = type: cell-based, Pseudomonas aeruginosa
Protocol: as §1

S. typhimurium 14028 = type: cell-based, Salmonella typhimurium
Protocol: as §1

S. typhimurium 7731 = type: cell-based, Salmonella typhimurium
Protocol: as §1

S. aureus 29213 = type: cell-based, Staphylococcus aureus
Protocol: as §1

S. aureus 25923 = type: cell-based, Staphylococcus aureus
Protocol: as §1

S. pullorum C7913 = type: cell-based
Protocol: as §1

S. epidermidis 12228 = type: cell-based, Staphylococcus epidermidis
Protocol: as §1

E. coli 078 = type: cell-based, Escherichia coli
Protocol: as §1

E. coli 25922 = type: cell-based, Escherichia coli
Protocol: as §1

E. coli UB1005 = type: cell-based, Escherichia coli
Protocol: as §1

MRSA 43300 = type: cell-based, Methicillin-Resistant Staphylococcus aureus
Protocol: as §1

E. faecalis 29212 = type: cell-based, Enterococcus faecalis
Protocol: as §1

Row | SMILES | MIC (A. baumannii AB1901) [µM] | MIC (A. baumannii AB1902) [µM] | MIC (P. aeruginosa 25349) [µM] | MIC (S. aureus 11011) [µM] | MIC, P. aeruginosa PAO1 (P. aeruginosa PAO1) [µM] | MIC, P. aeruginosa 27853 (P. aeruginosa 27853) [µM] | MIC, S. typhimurium 14028 (S. typhimurium 14028) [µM] | MIC, S. typhimurium 7731 (S. typhimurium 7731) [µM] | MIC, S. aureus 29213 (S. aureus 29213) [µM] | MIC, S. aureus 25923 (S. aureus 25923) [µM] | MIC, S. pullorum C7913 (S. pullorum C7913) [µM] | MIC, S. epidermidis 12228 (S. epidermidis 12228) [µM] | MIC, E. coli 078 (E. coli 078) [µM] | MIC, E. coli 25922 (E. coli 25922) [µM] | MIC, E. coli UB1005 (E. coli UB1005) [µM] | MIC, MRSA 43300 (MRSA 43300) [µM] | MIC, E. faecalis 29212 (E. faecalis 29212) [µM]
1 | CC(C)(O/N=C(\C(=O)N[C@@H]1C(=O)N2C(C(=O)[O-])=C(C[n+]3ccccc3)CS[C@H]12)c1csc(N)n1)C(=O)O [Ceftazidime] | 8 (≈ 4.37 µg/mL) | 128 (≈ 70 µg/mL) | 32 (≈ 17.5 µg/mL) | 128 (≈ 70 µg/mL) | – | – | – | – | – | – | – | – | – | – | – | – | –
2 | CC[C@H]1OC(=O)[C@H](C)[C@@H](O[C@H]2C[C@@](C)(OC)[C@@H](O)[C@H](C)O2)[C@H](C)[C@@H](O[C@@H]2O[C@H](C)C[C@H](N(C)C)[C@H]2O)[C@](C)(O)C[C@@H](C)C(=O)[C@H](C)[C@@H](O)[C@]1(C)O [Erythromycin] | 64 (≈ 47 µg/mL) | 128 (≈ 93.9 µg/mL) | 128 (≈ 93.9 µg/mL) | 128 (≈ 93.9 µg/mL) | – | – | – | – | – | – | – | – | – | – | – | – | –
3 | NC[C@H]1O[C@H](O[C@H]2[C@H](O)[C@@H](O[C@H]3O[C@H](CO)[C@@H](O)[C@H](N)[C@H]3O)[C@H](N)C[C@@H]2N)[C@H](O)[C@@H](O)[C@@H]1O [Kanamycin] | 128 (≈ 62 µg/mL) | 128 (≈ 62 µg/mL) | 128 (≈ 62 µg/mL) | 128 (≈ 62 µg/mL) | – | – | – | – | – | – | – | – | – | – | – | – | –
4 | N=C(N)NCCC[C@H](NC(=O)c1cccc2ccccc12)C(=O)N[C@H](CCCNC(=N)N)C(=O)N[C@@H](CCCNC(=N)N)C(=O)N1CCC[C@H]1C(=O)O [Nap] (1Naphthoyl-R[dR]RP-OH) | – | – | – | – | 256 (≈ 189 µg/mL) | 256 (≈ 189 µg/mL) | 256 (≈ 189 µg/mL) | 256 (≈ 189 µg/mL) | 256 (≈ 189 µg/mL) | 256 (≈ 189 µg/mL) | 256 (≈ 189 µg/mL) | 256 (≈ 189 µg/mL) | 256 (≈ 189 µg/mL) | 256 (≈ 189 µg/mL) | 256 (≈ 189 µg/mL) | 256 (≈ 189 µg/mL) | 256 (≈ 189 µg/mL)
5 | CC1COc2c(N3CCN(C)CC3)c(F)cc3c(=O)c(C(=O)O)cn1c23 (stereo not shown) [Ofloxacin] | 1 (≈ 0.361 µg/mL) | 128 (≈ 46.3 µg/mL) | 2 (≈ 0.723 µg/mL) | 128 (≈ 46.3 µg/mL) | – | – | – | – | – | – | – | – | – | – | – | – | –
6 | CC1(C)S[C@@H]2[C@H](NC(=O)Cc3ccccc3)C(=O)N2[C@H]1C(=O)O [Penicillin sodium] | 128 | 128 | 128 | 128 | – | – | – | – | – | – | – | – | – | – | – | – | –
7 | C[C@H](N)C(=O)N[C@@H](C)C(=O)N[C@@H](C)C(=O)N[C@H](CCCNC(=N)N)C(=O)N[C@@H](CCCNC(=N)N)C(=O)N[C@@H](CCCNC(=N)N)C(=O)N1CCC[C@H]1C(=O)O [Peptide A3] (H-AAA[dR]RRP-OH) | – | – | – | – | 256 (≈ 204 µg/mL) | 256 (≈ 204 µg/mL) | 256 (≈ 204 µg/mL) | 256 (≈ 204 µg/mL) | 256 (≈ 204 µg/mL) | 256 (≈ 204 µg/mL) | 256 (≈ 204 µg/mL) | 256 (≈ 204 µg/mL) | 256 (≈ 204 µg/mL) | 256 (≈ 204 µg/mL) | 256 (≈ 204 µg/mL) | 256 (≈ 204 µg/mL) | 256 (≈ 204 µg/mL)
